In patent US20030195242A1, “Use of Cox-2 inhibitors to prevent recurrences of herpesvirus infections” (priority 2002, published 2003):

Experiments:
Format in all cases: in vivo, BALB/c mice
[1] = system: McKrae strain of HSV-1; test: Heat-stress reactivation of latent HSV-1 in mice: infectious virus in cornea and trigeminal ganglia homogenates (ASA)
Experimental: (§1) Ocular swabs were immersed in 0.2 ml of complete tissue culture medium consisting of RPMI-1640, 10% fetal bovine serum (FBS), and an antibiotic-antimycotic mixture (Life Technologies, Grand Island, N.Y.). The swabs in culture medium were stored at 4° C. until testing by plaque assay. The determination of infectious virus in the cornea and in the trigeminal ganglia of animals were performed in a similar manner. Pairs of corneas and ganglia from individual mice were placed in separate tubes in 0.2 ml of complete medium, homogenized, clarified by centrifugation at 14,000×g for 5 minutes and the supernatant tested for infectious virus on Vero cells.
(§2) Male BALB/c strain mice (The Jackson Laboratory, Bar Harbor, Me.) were infected at 5 weeks of age by topical application of 5×10^5 plaque forming units of the McKrae strain HSV-1 following superficial scratching of the cornea. Documentation of the success of viral infection was determined by culturing ocular swabs taken on days 3 and 5 after infection. Animals without infectious virus on both days 3 and 5 in both eyes were excluded from use in these experiments. Thirty days after infection the eyes were swabbed to establish that infectious virus was no longer present on the ocular surface. Groups of uninfected age and sex matched mice were used as control animals in this study.
(§3) To test the effect of acetylsalicylic acid (ASA) on reactivation of HSV induced by heat stress, two sets of experiments were performed. In one set, groups of mice with latent HSV were immersed in 43° C. water up to their necks for 10 minutes. Following the hyperthermic stress, the animals were dried and given an intraperitoneal (IP) injection of 0.1 mg of ASA (Sigma Chemical Co., St. Louis, Mo.) suspended in 0.1 ml saline. At 8 and 16 hours after hyperthermia, the animals were again treated with ASA. Control mice were given IP injections of saline on the same schedule. At 24 hr after hyperthermic stress, the eyes were swabbed, the mice were sacrificed, and the corneas and trigeminal ganglia analyzed for infectious virus and viral DNA.
(§4) In a second experiment, groups of mice were treated IP for 3 days prior to hyperthermic stress at 8 hr intervals on each of the 3 days. The animals were then heat stressed, treated immediately after stress with ASA, and treated at 8 and 16 hr after hyperthermic stress. Control mice were given IP injections of saline on the same schedule. Two additional groups of mice were prophylactically treated by oral administration of 0.1 mg ASA or saline on the same dose schedule. In each experiment, animals were subdivided into those which were hyperthermically stressed and those which were not stressed. As above, the eyes of these animals were swabbed at 24 hr after stress and then sacrificed for analysis of infectious virus and viral DNA in their corneas and trigeminal ganglia.
(§5) Control mice for each of these experiments included animals which were latent for HSV-1 but which were not heat stressed. Subsets of this control group included animals placebo-treated and animals treated with ASA. Two additional control groups of animals were those which were not latent for HSV-1, but which were either treated with placebo or ASA on the schedules outlined above.

[2] = system: McKrae strain of HSV-1; test: Quantitation of viral DNA by PCR in cornea and trigeminal ganglion of latently infected mice (ASA); details: pooled from six mice
From the text: Quantitation of viral DNA in tissue homogenates was made using the polymerase chain reaction (PCR), as previously reported. See B. M. Gebhardt et al., “9-(4-hydroxybutyl)-N^2-phenylguanine (HBPG), a thymidine kinase inhibitor, suppresses herpes virus reactivation in mice,” Antiviral Res., vol. 30, pp. 87-94 (1996); and J. M. Hill et al., “Quantitative analysis of polymerase chain reaction products by dot blot,” Analyt. Biochem., vol. 235, pp. 44-48 (1996). In brief, the procedure involves comparing DNA extracted from experimental and control tissue samples containing viral DNA, and performing serial dilutions with DNA from homologous tissue homogenates of uninfected animals. Using a log dilution series and previously determined quantities of viral DNA, it is possible to obtain a series of curves which permit the sensitive and reproducible determination of viral DNA in experimental samples. The sensitivity of this procedure permits the determination of differences of 100 viral genome equivalents per sample. In each experimental series, standard curves were conducted along with the analyses of the tissue homogenates from experimental (drug treated) and control (placebo treated) mice.
as §3, §4

[3] = system: McKrae strain of HSV-1; test: Heat-stress reactivation of latent HSV-1 in mice: infectious virus on ocular surface swabs (ASA)
Experimental: The McKrae strain of HSV-1 was propagated in Vero cells (ATCC No. CCL-81, American Type Culture Collection, Manassass, Va.), titered by viral plaque assay, and stored at −70° C. until used to infect animals.
as §1, §2, §3, §4, §5

[4] = system: McKrae strain of HSV-1; test: Preliminary dose-finding experiment for inhibition of viral reactivation by celecoxib; details: IP four times daily; 0.1, 0.5, 1.0 and 5.0 mg tested; one day before and day of heat stress
Experimental: (§6) The mice were infected by the topical ocular route, and the establishment of a corneal infection was documented by slit lamp examination and ocular swabs on day 3 after infection. Only animals which were successfully infected were retained for use in these experiments. Thirty days after infection, groups of 15 latently infected and 15 uninfected mice were treated with the COX 2 inhibitor, celecoxib (G. D. Searle & Co., Skokie, Ill.). The dose of celecoxib that would inhibit viral reactivation was determined in a preliminary experiment in which groups of mice were injected intraperitoneally with 0.1, 0.5, 1.0, and 5.0 mg of celecoxib four times daily. The mice were treated one day before heat stress and the day of the heat stress. […] This dosage was used in all subsequent experiments.

[5] = system: McKrae strain of HSV-1; test: Heat-stress reactivation of latent HSV-1 in mice: infectious virus on the ocular surface (celecoxib); details: not stressed
From the text: (§7) To test the effect of a selective COX-2 inhibitor on recurrence of HSV, female BALB/c mice (The Jackson Laboratory, Bar Harbor, Me.) at 4 weeks of age were used. The strain of HSV and the method of propagation were as described in Example 1.
as §6
(§8) Two days prior to hyperthermic stress, uninfected mice and latently infected mice were treated four times daily with celecoxib at a concentration of 0.5 mg per treatment. […] Units of Infectious virus were recorded as units of cytopathic effect over a period of seven days. […] The units of cytopathic effect were recorded over a seven day incubation period. […]

[6] = system: McKrae strain of HSV-1; test: Heat-stress reactivation of latent HSV-1 in mice: infectious virus in the trigeminal ganglia (celecoxib); details: not stressed
From the text: as §7, §6, §8

[7] = Cornea, ASA from time of hyperthermic stress, 24 h after stress
[8] = Prophylactic ASA IP, 3 days prior to stress, cornea, 24 hrs after stress
[9] = Prophylactic ASA IP, 3 days prior to stress, trigeminal ganglia, 24 hrs after stress
[10] = Prophylactic ASA oral gavage 0.1 mg, 3 days prior to stress, cornea, 24 hrs after stress
[11] = Prophylactic ASA oral gavage 0.1 mg, 3 days prior to stress, trigeminal ganglia, 24 hrs after stress
[12] = Trigeminal ganglia, ASA from time of hyperthermic stress, 24 h after stress
[13] = Experiment 1, heat stressed, ASA 0.1 mg IP after stress and at 8 and 16 h, swabs 24 hrs after heat stress
[14] = Experiment 1, latent mice not stressed, ASA-treated
[15] = Experiment 2, heat stressed, ASA 0.1 mg IP after stress and at 8 and 16 h, swabs 24 hrs after heat stress
[16] = Experiment 2, latent mice not stressed, ASA-treated
[17] = Experiment 3, heat stressed, ASA 0.1 mg IP after stress and at 8 and 16 h, swabs 24 hrs after heat stress
[18] = Experiment 3, latent mice not stressed, ASA-treated
[19] = 0.5 mg celecoxib four times daily IP for two days
[20] = 0.5 mg celecoxib four times daily orally for two days

CC(=O)Oc1ccccc1C(=O)O [ASA, acetylsalicylic acid]
Infectious Virus (no. positive/total), cornea homogenates [1, 7]: 5/36
Percent of cornea homogenate cultures which contained virus [1, 7]: (14%)
Infectious Virus (no. positive/total), cornea homogenates [1, 8]: 2/10
Percent of cornea homogenate cultures which contained virus [1, 8]: 20%
Infectious Virus (no. positive/total), trigeminal ganglia homogenates [1, 9]: 3/10
Percent of trigeminal ganglia homogenate cultures which contained virus [1, 9]: 30%
Infectious Virus (no. positive/total), cornea homogenates [1, 10]: 2/14
Percent of cornea homogenate cultures which contained virus [1, 10]: 14%
Infectious Virus (no. positive/total), trigeminal ganglia homogenates [1, 11]: 4/14
Percent of trigeminal ganglia homogenate cultures which contained virus [1, 11]: 29%
Infectious Virus (no. positive/total), trigeminal ganglia homogenates [1, 12]: 8/36
Percent of trigeminal ganglia homogenate cultures which contained virus [1, 12]: (22%)
Viral DNA (genome equivalents) ([2]; ASA prophylaxis prior to heat stress, heat stressed, TG): 4.9 × 10^4 genome equivalents
Viral DNA (genome equivalents) ([2]; ASA prophylaxis prior to heat stress, heat stressed, cornea): 0.4 × 10^4 genome equivalents
Viral DNA (genome equivalents) ([2]; ASA prophylaxis schedule, not stressed, TG): 2.3 × 10^2 genome equivalents
Viral DNA (genome equivalents) ([2]; ASA prophylaxis schedule, not stressed, cornea): <1 × 10^2 genome equivalents
Viral DNA (genome equivalents) ([2]; Heat stressed, TG, ASA from time of stress): 2.1 × 10^4 genome equivalents
Viral DNA (genome equivalents) ([2]; Heat stressed, cornea, ASA from time of stress): 0.9 × 10^3 genome equivalents
Viral DNA (genome equivalents) ([2]; Not stressed, TG, ASA-treated): 1.5 × 10^2 genome equivalents
Viral DNA (genome equivalents) ([2]; Not stressed, cornea, ASA-treated): <1 × 10^2 genome equivalents
Levels of infectious virus in ocular tear film compared to placebo-treated mice ([3]; ASA IP or orally for three days prior to hyperthermic stimulus, data not shown): significantly lower
Infectious Virus (no. positive/total), ocular surface swabs [3, 13]: 2/12
Percent of ocular swab cultures which contained virus [3, 13]: (17%)
Infectious Virus (no. positive/total), ocular surface swabs [3, 14]: 0/10
Percent of ocular swab cultures which contained virus [3, 14]: (0%)
Infectious Virus (no. positive/total), ocular surface swabs [3, 15]: 3/12
Percent of ocular swab cultures which contained virus [3, 15]: (25%)
Infectious Virus (no. positive/total), ocular surface swabs [3, 16]: 0/8
Percent of ocular swab cultures which contained virus [3, 16]: (0%)
Infectious Virus (no. positive/total), ocular surface swabs [3, 17]: 3/12
Percent of ocular swab cultures which contained virus [3, 17]: (25%)
Infectious Virus (no. positive/total), ocular surface swabs [3, 18]: 0/10
Percent of ocular swab cultures which contained virus [3, 18]: (0%)

Cc1ccc(-c2cc(C(F)(F)F)nn2-c2ccc(S(N)(=O)=O)cc2)cc1 [celecoxib]
Most effective dose in preventing viral recurrence [4]: 0.5 mg
Infectious Virus on the Ocular Surface (mice positive/total) [5, 19]: 0/12
Infectious Virus on the Ocular Surface (mice positive/total) [5, 20]: 0/14
Infectious Virus in the Trigeminal Ganglia (mice positive/total) [6, 19]: 0/12
Infectious Virus in the Trigeminal Ganglia (mice positive/total) [6, 20]: 0/10
